Test results reported in the NIST ThermoML archive (doi:10.1016/j.jct.2014.01.006).
Values joined by “and” are separate entries in the source; they are usually repeats but may differ in a detail not shown here. Equal values may be shown once.

Experiments:
[1] = molar heat capacity at saturation pressure; conditions: Liquid
[2] = Molar enthalpy of transition or fusion; conditions: Crystal; Adiabatic calorimetry
[3] = for molar entropy: Vacuum adiabatic calorimetry; for mass density: Vibrating tube method; for vapor or sublimation pressure: Ebulliometric method (Recirculating still)

c1ccc(-c2cccc3ccccc23)cc1 [1-phenylnaphthalene]
Conditions	Glass transition temperature [°C]	Triple point temperature [K]	mass density [kg/m3]	molar entropy [J/K/mol]	molar heat capacity	vapor or sublimation pressure [kPa]
[1], 380 K, Vacuum adiabatic calorimetry	–	–	–	–	359 J/K/mol	–
[1], 384.76 K, Vacuum adiabatic calorimetry	–	–	–	–	361.84 J/K/mol	–
[1], 400 K, Vacuum adiabatic calorimetry	–	–	–	–	370.85 J/K/mol	–
[1], 400.59 K, Vacuum adiabatic calorimetry	–	–	–	–	371.18 J/K/mol	–
[1], 410 K, Small sample (50 mg) DSC	–	–	–	–	374.57 J/K/mol and 371.91 J/K/mol and 371.07 J/K/mol	–
[1], 415.69 K, Vacuum adiabatic calorimetry	–	–	–	–	380.05 J/K/mol	–
[1], 420 K, Vacuum adiabatic calorimetry	–	–	–	–	382.51 J/K/mol	–
[1], 428.68 K, Vacuum adiabatic calorimetry	–	–	–	–	387.41 J/K/mol	–
[1], 430 K, Small sample (50 mg) DSC	–	–	–	–	384.13 J/K/mol and 385.46 J/K/mol and 382.55 J/K/mol	–
[1], 439.15 K, Vacuum adiabatic calorimetry	–	–	–	–	393.4 J/K/mol	–
[1], 440 K, Vacuum adiabatic calorimetry	–	–	–	–	393.64 J/K/mol	–
[1], 450 K, Small sample (50 mg) DSC	–	–	–	–	395.1 J/K/mol and 393.86 J/K/mol and 402.09 J/K/mol	–
[1], 460 K, Vacuum adiabatic calorimetry	–	–	–	–	401.95 J/K/mol	–
[1], 470 K, Small sample (50 mg) DSC	–	–	–	–	403.25 J/K/mol and 404.83 J/K/mol and 407.16 J/K/mol	–
[1], 480 K, Vacuum adiabatic calorimetry	–	–	–	–	412.21 J/K/mol	–
[1], 490 K, Small sample (50 mg) DSC	–	–	–	–	411.48 J/K/mol and 416.14 J/K/mol and 419.05 J/K/mol	–
[1], 500 K, Vacuum adiabatic calorimetry	–	–	–	–	422.42 J/K/mol	–
[1], 510 K, Small sample (50 mg) DSC	–	–	–	–	426.2 J/K/mol and 428.36 J/K/mol and 429.11 J/K/mol	–
[1], 520 K, Vacuum adiabatic calorimetry	–	–	–	–	432.63 J/K/mol	–
[1], 530 K, Small sample (50 mg) DSC	–	–	–	–	435.1 J/K/mol and 439.09 J/K/mol and 438.67 J/K/mol	–
[1], 540 K, Vacuum adiabatic calorimetry	–	–	–	–	442.84 J/K/mol	–
[1], 550 K, Small sample (50 mg) DSC	–	–	–	–	444.66 J/K/mol and 449.81 J/K/mol and 447.07 J/K/mol	–
[1], 560 K, Vacuum adiabatic calorimetry	–	–	–	–	453.01 J/K/mol	–
[1], 570 K, Small sample (50 mg) DSC	–	–	–	–	452.81 J/K/mol and 460.62 J/K/mol and 460.45 J/K/mol	–
[1], 580 K, Vacuum adiabatic calorimetry	–	–	–	–	463.22 J/K/mol	–
[1], 590 K, Small sample (50 mg) DSC	–	–	–	–	466.28 J/K/mol and 469.1 J/K/mol and 471.1 J/K/mol	–
[1], 600 K, Vacuum adiabatic calorimetry	–	–	–	–	473.43 J/K/mol	–
[1], 610 K, Small sample (50 mg) DSC	–	–	–	–	480.83 J/K/mol and 476.5 J/K/mol and 479.25 J/K/mol	–
[1], 620 K, Vacuum adiabatic calorimetry	–	–	–	–	483.64 J/K/mol	–
[1], 640 K, Vacuum adiabatic calorimetry	–	–	–	–	493.83 J/K/mol	–
[1], 650 K, Vacuum adiabatic calorimetry	–	–	–	–	498.91 J/K/mol	–
[3], 5 K, Crystal	–	–	–	0.1746	–	–
[3], 10 K, Crystal	–	–	–	1.372	–	–
[3], 20 K, Crystal	–	–	–	7.849	–	–
[3], 30 K, Crystal	–	–	–	17.67	–	–
[3], 40 K, Crystal	–	–	–	28.64	–	–
[3], 50 K, Crystal	–	–	–	39.72	–	–
[3], 60 K, Crystal	–	–	–	50.49	–	–
[3], 70 K, Crystal	–	–	–	60.84	–	–
[3], 80 K, Crystal	–	–	–	70.76	–	–
[3], 90 K, Crystal	–	–	–	80.33	–	–
[3], 100 K, Crystal	–	–	–	89.56	–	–
[3], 120 K, Crystal	–	–	–	107.24	–	–
[3], 140 K, Crystal	–	–	–	124.19	–	–
[3], 160 K, Crystal	–	–	–	140.69	–	–
[3], 180 K, Crystal	–	–	–	156.93	–	–
[3], 200 K, Crystal	–	–	–	173.03	–	–
[3], 220 K, Crystal	–	–	–	189.11	–	–
[3], 240 K, Crystal	–	–	–	205.23	–	–
[3], 260 K, Crystal	–	–	–	221.4	–	–
[3], 280 K, Crystal	–	–	–	237.64	–	–
[3], 297.47 K, Crystal	–	–	–	251.92	–	–
[3], 297.47 K, Liquid	–	–	–	304.2	–	–
[3], 298.15 K, Liquid	–	–	–	304.91	–	–
[3], 300 K, Liquid	–	–	–	306.83	–	–
[3], 320 K, Liquid	–	–	–	327.32	–	–
[3], 323.14 K, Liquid	–	–	1082.7	–	–	–
[3], 340 K, Liquid	–	–	–	347.28	–	–
[3], 348.13 K, Liquid	–	–	1064.6	–	–	–
[3], 360 K, Liquid	–	–	–	366.78	–	–
[3], 373.12 K, Liquid	–	–	1045.5	–	–	–
[3], 375 K, Liquid	–	–	–	–	–	0.0218
[3], 380 K, Liquid	–	–	–	385.86	–	–
[3], 385 K, Liquid	–	–	–	–	–	0.0404
[3], 395 K, Liquid	–	–	–	–	–	0.0732
[3], 400 K, Liquid	–	–	–	404.57	–	–
[3], 405 K, Liquid	–	–	–	–	–	0.1265
[3], 415 K, Liquid	–	–	–	–	–	0.2126
[3], 420 K, Liquid	–	–	–	422.96	–	–
[3], 423.11 K, Liquid	–	–	1006.3	–	–	–
[3], 425.01 K, Liquid	–	–	–	–	–	0.3464
[3], 434.99 K, Liquid	–	–	–	–	–	0.549
[3], 440 K, Liquid	–	–	–	441.01	–	–
[3], 445 K, Liquid	–	–	–	–	–	0.849
[3], 448.11 K, Liquid	–	–	986.7	–	–	–
[3], 455 K, Liquid	–	–	–	–	–	1.283
[3], 460 K, Liquid	–	–	–	458.69	–	–
[3], 465 K, Liquid	–	–	–	–	–	1.896
[3], 466.36 K, Liquid	–	–	–	–	–	2
[3], 473.11 K, Liquid	–	–	967	–	–	–
[3], 475 K, Liquid	–	–	–	–	–	2.747
[3], 480 K, Liquid	–	–	–	476.01	–	3.281
[3], 485.69 K, Liquid	–	–	–	–	–	4.002
[3], 494.31 K, Liquid	–	–	–	–	–	5.336
[3], 498.11 K, Liquid	–	–	945	–	–	–
[3], 500 K, Liquid	–	–	–	493.05	–	–
[3], 507.13 K, Liquid	–	–	–	–	–	8.005
[3], 516.73 K, Liquid	–	–	–	–	–	10.67
[3], 520 K, Liquid	–	–	–	509.81	–	–
[3], 523.11 K, Liquid	–	–	921.4	–	–	–
[3], 524.52 K, Liquid	–	–	–	–	–	13.34
[3], 532.53 K, Liquid	–	–	–	–	–	16.64
[3], 539.27 K, Liquid	–	–	–	–	–	19.93
[3], 540 K, Liquid	–	–	–	526.33	–	–
[3], 548.1 K, Liquid	–	–	–	–	–	25.01
[3], 548.11 K, Liquid	–	–	–	–	–	25.02
[3], 557 K, Liquid	–	–	–	–	–	31.18
[3], 560 K, Liquid	–	–	–	542.62	–	–
[3], 565.96 K, Liquid	–	–	–	–	–	38.57
[3], 574.94 K, Liquid	–	–	–	–	–	47.36
[3], 580 K, Liquid	–	–	–	558.7	–	–
[3], 584.02 K, Liquid	–	–	–	–	–	57.82
[3], 593.13 K, Liquid	–	–	–	–	–	70.11
[3], 600 K, Liquid	–	–	–	574.57	–	–
[3], 602.33 K, Liquid	–	–	–	–	–	84.55
[3], 611.56 K, Liquid	–	–	–	–	–	101.34
[3], 620 K, Liquid	–	–	–	590.26	–	–
[3], 620.85 K, Liquid	–	–	–	–	–	120.8
[3], 630.2 K, Liquid	–	–	–	–	–	143.27
[3], 640 K, Liquid	–	–	–	605.78	–	–
[3], 650 K, Liquid	–	–	–	613.47	–	–
[3], Crystal, Adiabatic calorimetry	–	297.47	–	–	–	–
[3], Glass, Adiabatic calorimetry	-53	–	–	–	–	–

Conditions	Molar enthalpy of transition or fusion [kcal/mol]
[2]	3.716
